Reference: BindingDB's records for doi:10.1016/j.bmc.2019.06.020 (Shanghai Jiao Tong University, 2019)

Experiments:
[1] = target: T1, Polypeptide N-acetylgalactosaminyltransferase 2 (Homo sapiens, UniProt Q10471); test: Binding affinity of human recombinant FLAG-tagged ppGalNAcT2 expressed in HEK293 cells assessed as dissociation rate by SPR analysis
[2] = target: T1, Polypeptide N-acetylgalactosaminyltransferase 2; test: Binding affinity of human recombinant FLAG-tagged ppGalNAcT2 expressed in HEK293 cells assessed as association rate by SPR analysis; conditions: read-out: kon (M-1-s-1)

T1 sequence (Q10471 whole entry): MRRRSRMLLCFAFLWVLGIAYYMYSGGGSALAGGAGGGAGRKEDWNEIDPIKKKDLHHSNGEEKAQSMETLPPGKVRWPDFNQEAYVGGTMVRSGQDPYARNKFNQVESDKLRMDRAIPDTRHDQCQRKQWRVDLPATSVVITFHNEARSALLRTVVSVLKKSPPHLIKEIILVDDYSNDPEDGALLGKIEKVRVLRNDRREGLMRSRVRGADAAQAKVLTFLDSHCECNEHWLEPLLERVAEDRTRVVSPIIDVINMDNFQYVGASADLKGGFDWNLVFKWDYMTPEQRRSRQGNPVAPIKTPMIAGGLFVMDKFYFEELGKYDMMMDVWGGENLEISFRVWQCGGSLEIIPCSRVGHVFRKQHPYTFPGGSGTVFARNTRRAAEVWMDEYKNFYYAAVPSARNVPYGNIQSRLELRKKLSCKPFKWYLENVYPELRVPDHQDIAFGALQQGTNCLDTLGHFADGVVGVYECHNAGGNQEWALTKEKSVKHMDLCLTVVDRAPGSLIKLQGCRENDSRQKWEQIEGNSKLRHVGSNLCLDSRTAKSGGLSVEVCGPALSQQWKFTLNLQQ

| SMILES | koff [1] [s⁻¹] | kon [2] [M⁻¹ s⁻¹] |
| --- | --- | --- |
| O=c1oc2c(O)c(O)ccc2c2cc(O)c(O)cc12 | 0.00104 | 3530 |
| O=c1oc2c(O)c(O)cc3c(=O)oc4c(O)c(O)cc1c4c23 [Elagic Acid] | 0.000879 | 2370 |
| O=C(O)c1cc(O)c(O)c(O)c1 [Gallic Acid, F] | 0.00134 | 1450 |
